Values of other authors as cited in patent US20110008867A1, “COMPOSITIONS AND METHODS FOR THE PRODUCTION OF A COMPOUND” (GREENLIGHT BIOSCIENCES, priority 2008, published 2011).

What was measured:
E. coli = conditions: in E. coli; concentration that inhibits cell growth
yeast = conditions: in yeast; concentration that inhibits cell growth

Row | Structure (SMILES) | Inhibition Concentration (E. coli) | Inhibition Concentration (yeast) [%]
1 | CCCCO [1-butanol] | 1.3% in E. coli | –
2 | CCCCCCCCCCO [1-decanol] | 0.000236% in E. Coli | –
3 | CCCCCO [1-pentanol] | 0.25% in E. Coli | –
4 | CCO [Ethanol] | 5% | 15
